Reference: patent US20200377510A1, “DERIVATIVES OF PIPERLONGUMINE AND USES THEREOF” (Auransa Inc., priority 2019, published 2020)
Like-named read-outs stand apart in the source and are kept apart here.

Columns and labels:
[1] = test system: multiple myeloma (MOLP-8) cells; assay: In vitro cell viability assay (CellTiter-Glo, ATP levels); assay type: cell-based; settings: Homo sapiens, MOLP-8, 168 h, 7-day incubation, average IC50
Description: (§1) The present disclosure provides a method for inhibiting cell viability, as measured by ATP levels. The method for inhibiting cell viability is drawn to contacting various cancer cells with the compounds described herein at various concentrations. The cancer cell lines were maintained in culture conditions at 37° C. in an atmosphere of 5% CO2 in air. The cells growing in an exponential growth phase were harvested and counted for plating. Compounds were incubated in two cancer cell types representing multiple myeloma (MOLP-8) and triple negative breast cancer (DU4475). Cells were plated at an optimized cell numbers per well in 96-well plates and allowed to attach to the plates overnight at approximately 80% confluency.
(§2) After addition of compounds, plates were incubated for 7-day. At the end of incubation period on day 8, media was removed and replaced with a solution of CellTiter-Glo™ reagent (Promega®) according to protocol. Luminescence was read using an EnVision® multi-label plate reader (Perkin-Elmer®), and signal intensity was calculated relative to positive and negative control wells. Cisplatin was included as the positive control. A dose-response calculation was performed in a non-linear regression fit and by using the Hill equation to calculate a concentration-response curve and 50% inhibitory concentration (IC50) values for each compound. […]

[2] = test system: triple negative breast cancer (DU4475) cells; assay: as above; assay type: cell-based; settings: Homo sapiens, DU-4475, 168 h, 7-day incubation, average IC50
Description: as §1, §2

[3] = In vivo pharmacokinetic analysis (plasma); settings: female, Balb/C, mouse, mice, read-out: Plasma half-life t1/2 (converted)
Description: Age 8 to 9 weeks Balb/C female mice were used for this study. The mice were maintained in a special pathogen-free environment and in disposable cages. Animal room was set to maintain temperature and relative humidity at 23° C.±3° C. and 55%±15%, respectively. Housing room was on a 12:12 light/dark cycle. Water was supplied ad libitum to each cage via water bottles. All mice were fed rodent diet with 18% protein. All animals were weighed before commencement of the study.
Compound 1 was stored at 4° C. protected from light. Dosing solutions were used within 2 hours of preparation. Compound 1 was formulated within 2 hours prior to dosing by adding the pre-calculated volume of PEG 400 (40% of total solution volume). Formulated compound 1 was vortexed and sonicated until a clear solution was formed. To this clear formulation, saline (60% of total solution volume) was added and vortexed until a clear solution was formed. The Compound 1 solution was filtered using a sterile syringe filter (0.2 μm coming filter). All Compound 1 solutions were mixed thoroughly prior to pulling up into syringes and prior to dosing. 12 mice were dosed intravenously at 5 mg/kg. 12 mice were dosed intraperitoneally at 10 mg/kg. 12 mice were dosed orally at 10 mg/kg. Animals were sacrificed for blood and organs sampling. Under isoflurane anesthesia, blood was collected via retro-orbital route. Blood samples were then centrifuged for 5 minutes at a minimum of 2,000×g. Plasma supernatant (a minimum of 50 μL or as much as feasible to collect) was collected. Plasma was stored at −80° C.
Bioanalytical analysis of plasma levels of Compound 1 was performed by mass spectrometry. Calibration standards were prepared by spiking the test compound into blank plasma. Calibrator concentrations were 5,000, 2,000, 1,000, 200, 100, 20, 10, 2 and 1 ng/mL. Calibration standard samples were processed along with the test samples.
Twenty μL aliquots of plasma test samples were treated with 100 μL of methanol: acetonitrile (5:95 v:v) containing internal standard (12.5 ng/mL verapamil). The mixtures were vortexed on a shaker for 15 minutes and subsequently centrifuged at 4,000 rpm for 15 minutes. An aliquot of 50 μL of the supernatant was mixed with 100 μL of water with 0.1% formic acid for injection to the LC/MS/MS (liquid chromatography/tandem-mass spectrometry).
The concentration of Compound 1 was determined by a UPLC-TIS-MS-MS method (ultra performance liquid chromatography—turbo ion spray—tandem mass spectrometry). The UPLC comprised a Shimadzu LC-30AD HPLC (high performance liquid chromatography). Chromatographic separation was achieved using a Waters UPLC column (Acquity UPLC BEH C18, 50×2.1 mm, 1.7 μM). Mobile phase A was water with 0.1% formic acid; mobile phase B was acetonitrile with 0.1% formic acid. The gradient program was as follows: 20% B (0-0.2 min), 20-95% B (0.2-1.2 min), 95% B (1.2-1.8 min), 95-20% B (1.81-2.2 min). The flow rate was 0.6 mL/minute. The column was maintained at 50° C.
Mass spectrometric analysis was performed using an AB Sciex API5000 with Turbo Ion Spray interface operating in a positive ionization mode. Quantification was performed using multiple reaction monitoring (MRM) method with the transitions of (m/z) 316.104→(m/z) 219.014 for Compound 1 and (m/z) 455.346→(m/z) 165 for verapamil (internal standard). Pharmacokinetics of Compound 1 ((E)-1-(3-(8-methoxy-2,3-dihydrobenzo[b][1,4]dioxin-6-yl)acryloyl)-5,6-dihydropyridin-2(1H)-one) in the plasma of the mice dosed intravenously (IV; 5 mg/kg), intraperitoneally (IP; 10 mg/kg) and orally (PO; 10 mg/kg) (n=3 per time point) is illustrated in FIG. 1.

[4] = test system: collagen-induced arthritis; assay: Collagen-induced arthritis in female Lewis rats; assay type: in vivo; settings: 3 mg/kg QD PO, vs vehicle control rats
Description: Animals were anesthetized with isoflurane and given intradermal injections of 400 μl (2×200 μl) of Porcine Type II collagen in Freund's incomplete adjuvant spread equally over two sites on the back on study days 0. On day 7, a boost injection was given; intradermal injections of 100 μl of Porcine Type II collagen in Freund's incomplete adjuvant. Collagen was prepared by making a 2 mg/ml solution in 0.01 N Acetic acid. Equal volumes of collagen and Freund's incomplete adjuvant were emulsified by hand mixing with the syringes partially submerged in ice water for 10 minutes, at which point a bead of this material will hold its form when placed in water.
On study day 6, the animals were randomized by body weight into treatment groups and dosing was initiated.
Efficacy evaluation was based on animal body weights, ankle caliper measurements, and final hind paw weights. Terminal serum was analyzed for anti-type II collagen antibody (IgG) concentrations.
The rats were weighed on day 6 for randomization, on day 9, and daily on days 11 through 17.
Caliper measurements of right and left ankle diameters were taken on study days 9 (baseline) and 11 through 17. Ankle caliper measurements were made with a digital micrometer (Digitrix II; Fowler & NSK). Baseline measurements were taken using one ankle with values rounded to one thousandth of an inch. […]

`C/C(=C/c1ncccn1)C(=O)N1CCC=CC1=O` [Compound 49] showed an IC50 [1] of 6.11 µM and an IC50 [2] of 5.06 µM.

With `COc1cc(/C=C/C(=O)N2CCC=CC2=O)cc(OC)c1OC` [piperlongumine, 1-[(E)-3-(3,4,5-trimethoxyphenyl)prop-2-enoyl]-2,3-dihydropyridin-6-one] the half-life ([3]; in vivo, IP, 10 mg/kg) was 1.07 h, the half-life ([3]; in vivo, IV, 5 mg/kg) was 1.26 h and the half-life ([3]; in vivo, PO, 10 mg/kg) was 1.31 h.

In the case of `CCS(=O)(=O)N1CC(CC#N)(n2cc(-c3ncnc4[nH]ccc34)cn2)C1` [baricitinib], the “reduction of ankle diameter measurements AUC” value [4] is reported as 72% and the “reduction of final hind-paw weights” value [4] is reported as 71%.

Compound `COc1cc(/C=C/C(=O)N2CCC=CC2=O)cc2c1OCCO2` [Compound 1, (E)-1-(3-(8-methoxy-2,3-dihydrobenzo[b][1,4]dioxin-6-yl)acryloyl)-5,6-dihydropyridin-2(1H)-one] has a half-life ([3]; plasma, IP, 10 mg/kg) of 1.14 h, a half-life ([3]; plasma, IV, 5 mg/kg) of 1.66 h and a half-life ([3]; plasma, PO, 10 mg/kg) of 2.16 h.
